≈ marks a conversion by molar mass, not a printed value. Read-outs that look alike come from different tables or passages of the source.

Here are results for three compounds from PMC8348200, “Selective Antifungal Activity and Fungal Biofilm Inhibition of Tryptophan Center Symmetrical Short Peptide” (International Journal of Molecular Sciences, 2021).

Experiment in all cases: microbe, parasite or virus in culture
One assay concerns L. rhamnosus 1.0911. Format: cell-based, Lactobacillus rhamnosus. The settings on record: 37 °C 24 h, peptides 0.5-128 μM, lowest concentration inhibiting 95% of growth, three independent experiments, read-out: MICs, L. rhamnosus 1.0911. The method, then:
(§1) The peptide antimicrobial activity was determined according to the Clinical and Laboratory Standards Institute method, with modifications. Bacteria concentration was measured by ultraviolet spectrophotometer, and fungi concentration was confirmed by McMillan’s turbidimetric method, which compared the fungi solution with the standard McFarland tube in front of the horizontal line on the paper with the naked eye. Because the light has different refract in different liquids. The standard solution is composed of sulfuric acid and barium chloride, which is equivalent to 1*10^8 CFU fungi. After cultivation, the growth of fungi and bacteria was measured by TECAN automatic enzyme label instrument. Briefly, bacterial cells were cultured in MHB until logarithmic phase, yeast colonies cultured in Yeast Peptone Dextrose Agar (YPDA) were picked and diluted in RPMI 1640 growth medium buffered with morpholine propane sulfonic acid (MOPS), and then 50 μL of bacterial or fungi cell solution (0.5–1 × 10^4 CFU/mL) was added to each well of sterile 96-well plates. Each well contained 50 μL of AMPs dissolved in BSA; the final concentrations of the peptides ranged from 0.5 to 128 μM. The lowest concentration of peptide with no microbial growth being observed were measured after incubation at 37 °C for 24 h for bacteria or at 28 °C for 48 h for fungi. Broth with microbial cells and un-inoculated broth were used as positive control and negative controls, respectively.

A further assay relates to L. rhamnosus 1.0385. Format: cell-based, Lactobacillus rhamnosus. The settings on record: 37 °C 24 h, peptides 0.5-128 μM, lowest concentration inhibiting 95% of growth, three independent experiments, read-out: MICs, L. rhamnosus 1.0385. The method, then: as §1
A further assay concerns C. albicans SP3902. Type of assay: cell-based, Candida albicans. Particulars: clinical isolate, RPMI 1640 buffered with MOPS, 28 °C 48 h, 0.5-128 μM, read-out: MICs, C. albicans SP3902. The protocol:
as §1

Another assay relates to L. plantarum 7469. Type of assay: cell-based. The settings on record: 37 °C 24 h, peptides 0.5-128 μM, lowest concentration inhibiting 95% of growth, three independent experiments, read-out: MICs, L. plantarum 7469. The method, then:
as §1

The test system of assay [1] is C. tropicalis cgmcc 2.1975. Format: cell-based. Particulars: RPMI 1640 buffered with MOPS, 28 °C 48 h, 0.5-128 μM, read-out: MICs, C. tropicalis cgmcc 2.1975. The method, then: as §1
Assay [2] has as its system C. parapsilosis cgmcc 2.3989. Format: cell-based. The settings on record: RPMI 1640 buffered with MOPS, 28 °C 48 h, 0.5-128 μM, read-out: MICs, C. parapsilosis cgmcc 2.3989. The protocol:
as §1

The subject of a further assay is S. aureus 29213. Type of assay: cell-based, Staphylococcus aureus. Particulars: MHB, 37 °C 24 h, peptides 0.5-128 μM, lowest concentration inhibiting 95% of growth, three independent experiments, read-out: MICs, S. aureus 29213. The protocol:
as §1

For another assay, the system named is S. aureus 25923. Type of assay: cell-based, Staphylococcus aureus. Particulars: MHB, 37 °C 24 h, peptides 0.5-128 μM, lowest concentration inhibiting 95% of growth, three independent experiments, read-out: MICs, S. aureus 25923. The protocol:
as §1

A further assay deals with S. thermophilus YM-C. Format: cell-based, Streptococcus thermophiles. Particulars: 37 °C 24 h, peptides 0.5-128 μM, lowest concentration inhibiting 95% of growth, three independent experiments, read-out: MICs, S. thermophilus YM-C. The protocol:
as §1

A further assay deals with C.albicans cgmcc 2.2086. Format: cell-based, Candida albicans. Particulars: C.albicans cgmcc 2.2086. The protocol:
as §1, with “The lowest concentration of peptide with no microbial growth being observed were measured after incubation at 37 °C for 24 h for bacteria or at 28 °C for 48 h for fungi.” left out
The salt and acid sensitivities of the peptides were measured using with modified method to test MIC values; tested peptides were incubated in the presence of different final concentrations of physiological salts. The subsequent steps were consistent with the MIC determination protocol.

The subject of assay [3] is Fluconazole-resistant C. albicans 56214. Particulars: for MIC: Candida albicans, 48 h, read-out: MICs, C. albicans 56214. The protocol:
as §1, with “Bacteria concentration was measured by ultraviolet spectrophotometer, and fungi concentration was confirmed by McMillan’s turbidimetric method, which compared the fungi solution with the standard McFarland tube in front of the horizontal line on the paper with the naked eye.” left out, “The lowest concentration of peptide with no microbial growth being observed were measured after incubation at 37 °C for 24 h for bacteria or at 28 °C for 48 h for fungi.” left out

Setting [4] is: Lacticaseibacillus rhamnosus, 1.0911.
[5] abbreviates: Lacticaseibacillus rhamnosus, 1.0385.
Where [6] appears, read: Lactiplantibacillus plantarum, 7469.
The mark [7] stands for this setting: Lodderomyces parapsilosis, CGMCC2.
Setting [8] is: Candida albicans, CGMCC2, no added salt, read-out: MIC, Control.
Where [9] appears, read: Candida albicans, CGMCC2, pH = 6 (acidic conditions), read-out: MIC in acid environment, pH = 6.
Where [10] appears, read: Candida albicans, CGMCC2, physiological concentration of FeCl3, read-out: MIC in the presence of FeCl3.
[11] abbreviates: Candida albicans, CGMCC2, physiological concentration of KCl, read-out: MIC in the presence of KCl.
The mark [12] stands for this setting: Candida albicans, CGMCC2, physiological concentration of MgCl2, read-out: MIC in the presence of MgCl2.
Where [13] appears, read: Candida albicans, CGMCC2, physiological concentration of NH4Cl, read-out: MIC in the presence of NH4Cl.
[14] abbreviates: Candida albicans, CGMCC2, physiological concentration of NaCl (Na+), read-out: MIC in the presence of NaCl.
Setting [15] is: Candida albicans, CGMCC2, physiological concentration of ZnCl2, read-out: MIC in the presence of ZnCl2.

As to `CC[C@H](C)[C@H](NC(=O)CN)C(=O)NCC(=O)N[C@@H](C)C(=O)N[C@H](C(=O)N[C@@H](CC(C)C)C(=O)N[C@@H](CCCCN)C(=O)N[C@H](C(=O)N[C@@H](CC(C)C)C(=O)N[C@H](C(=O)N[C@H](C(=O)NCC(=O)N[C@@H](CC(C)C)C(=O)N1CCC[C@H]1C(=O)N[C@@H](C)C(=O)N[C@@H](CC(C)C)C(=O)N[C@H](C(=O)N[C@@H](CO)C(=O)N[C@@H](Cc1c[nH]c2ccccc12)C(=O)N[C@H](C(=O)N[C@@H](CCCCN)C(=O)N[C@@H](CCCNC(=N)N)C(=O)N[C@@H](CCCCN)C(=O)N[C@@H](CCCNC(=N)N)C(=O)N[C@@H](CCC(N)=O)C(=O)N[C@@H](CCC(N)=O)C(N)=O)[C@@H](C)CC)[C@@H](C)CC)[C@@H](C)O)[C@@H](C)O)C(C)C)C(C)C` [Melittin, reference compound], the MIC is recorded as more than 128 µM in the assay with L. rhamnosus 1.0911; more than 128 µM in the assay with L. rhamnosus 1.0385; 4 µM (≈ 11.4 µg/mL) with C. albicans SP3902; more than 128 µM in the assay with L. plantarum 7469; 2 µM (≈ 5.69 µg/mL) in [1]; 2 µM (≈ 5.69 µg/mL) in [2]. In addition, the MIC is 2 µM (≈ 5.69 µg/mL) with S. aureus 29213; 2 µM (≈ 5.69 µg/mL) in the assay with S. aureus 25923; more than 128 µM with S. thermophilus YM-C; 4 µM with C.albicans cgmcc 2.2086 (no added salt, read-out: MIC, Control); 4 µM (≈ 11.4 µg/mL) with C.albicans cgmcc 2.2086 (pH = 6 (acidic conditions), read-out: MIC in acid environment, pH = 6); 4 µM in the assay with C.albicans cgmcc 2.2086 (physiological concentration of FeCl3, read-out: MIC in the presence of FeCl3). Besides, the MIC in the assay with C.albicans cgmcc 2.2086 (physiological concentration of KCl, read-out: MIC in the presence of KCl) was 4 µM; in the assay on C.albicans cgmcc 2.2086 (physiological concentration of MgCl2, read-out: MIC in the presence of MgCl2), 8 µM; in the assay with C.albicans cgmcc 2.2086 (physiological concentration of NaCl (Na+), read-out: MIC in the presence of NaCl) it was 8 µM; in the assay on C.albicans cgmcc 2.2086 (physiological concentration of ZnCl2, read-out: MIC in the presence of ZnCl2), 4 µM. The “MICs, C. albicans 56214” value in assay [3] (fluconazole-resistant strain, RPMI 1640 buffered with MOPS, 28 °C 48 h, 0.5-128 μM) was found to be 2 µM.

Take `C[C@@H]1[C@H](O)[C@@H](C)/C=C/C=C/C=C/C=C/C=C/C=C/C=C/[C@H](O[C@@H]2O[C@H](C)[C@@H](O)[C@H](N)[C@@H]2O)C[C@@H]2O[C@](O)(C[C@@H](O)C[C@@H](O)[C@H](O)CC[C@@H](O)C[C@@H](O)CC(=O)O[C@H]1C)C[C@H](O)[C@H]2C(=O)O` [Amphotericin B, reference compound]: the MIC in the assay on L. rhamnosus 1.0911 (setting [4]) was more than 128 µM; in the assay on L. rhamnosus 1.0385 (setting [5]), more than 128 µM; in the assay on C. albicans SP3902 (Candida albicans, SP3902), 0.5 µM (≈ 0.462 µg/mL); in the assay with L. plantarum 7469 (setting [6]), more than 128 µM; in assay [1] (Candida tropicalis, CGMCC2), 1 µM (≈ 0.924 µg/mL); in assay [2] (setting [7]), 2 µM (≈ 1.85 µg/mL). Further, the MIC was more than 128 µM in the assay on S. aureus 29213 (Staphylococcus aureus, 29213); more than 128 µM in the assay with S. aureus 25923 (Staphylococcus aureus, 25923); more than 128 µM in the assay on S. thermophilus YM-C (Streptococcus thermophilus); 1 µM with C.albicans cgmcc 2.2086 (setting [8]); 1 µM (≈ 0.924 µg/mL) in the assay with C.albicans cgmcc 2.2086 (setting [9]); 1 µM in the assay on C.albicans cgmcc 2.2086 (setting [10]). For the same compound, the MIC in the assay with C.albicans cgmcc 2.2086 (setting [11]) turned out to be 1 µM; in the assay with C.albicans cgmcc 2.2086 (setting [12]), 1 µM; in the assay on C.albicans cgmcc 2.2086 (setting [13]), 1 µM; with C.albicans cgmcc 2.2086 (setting [14]), 2 µM; in the assay with C.albicans cgmcc 2.2086 (setting [15]) it was 1 µM; in assay [3], 1 µM (≈ 0.924 µg/mL).

As for `OC(Cn1cncn1)(Cn1cncn1)c1ccc(F)cc1F` [Fluconazole, reference compound], the MIC with L. rhamnosus 1.0911 (setting [4]) was more than 128 µM; with L. rhamnosus 1.0385 (setting [5]) it was more than 128 µM; in the assay with C. albicans SP3902 (Candida albicans, SP3902) it was 16 µM (≈ 4.9 µg/mL); in the assay on L. plantarum 7469 (setting [6]), more than 128 µM; in assay [1] (Candida tropicalis, CGMCC2), 4 µM (≈ 1.23 µg/mL); in [2] (setting [7]) it was 4 µM (≈ 1.23 µg/mL). For the same compound, the MIC is more than 128 µM in the assay on S. aureus 29213 (Staphylococcus aureus, 29213); more than 128 µM with S. aureus 25923 (Staphylococcus aureus, 25923); more than 128 µM in the assay on S. thermophilus YM-C (Streptococcus thermophilus); 1 µM in the assay on C.albicans cgmcc 2.2086 (setting [8]); 1 µM (≈ 0.306 µg/mL) in the assay on C.albicans cgmcc 2.2086 (setting [9]); 1 µM with C.albicans cgmcc 2.2086 (setting [10]). The MIC was 1 µM with C.albicans cgmcc 2.2086 (setting [11]); 1 µM in the assay with C.albicans cgmcc 2.2086 (setting [12]); 1 µM with C.albicans cgmcc 2.2086 (setting [13]); 2 µM in the assay with C.albicans cgmcc 2.2086 (setting [14]); 1 µM in the assay on C.albicans cgmcc 2.2086 (setting [15]); more than 128 µM in [3].
